Laboratory results as given in patent US9351491B2, “Inhibition and dispersion of biofilms in plants with imidazole-triazole derivatives” (priority 2008, dated 2016).
Counter-ions that a name gives are not always drawn.

How the values were obtained:
[1] = system: bacterial spot (caused by the bacterium Xanthomonas euvesicatoria) of pepper, copper-resistant strains; test: Field test in pepper plants inoculated with Xanthomonas euvesicatoria (bacterial spot); format: in vivo
Procedure: To test the effects of the triazole derivatives for plant biofilm inhibition activity, the compound of Formula (II)(a)(5)(D) was used as an exemplary compound (the “biofilm inhibitor/disperser” or “BFI” in the text hereinafter of Example 4).
The compound was evaluated under field conditions to determine whether it controls or enhances control of bacterial spot (caused by the bacterium Xanthomonas euvesicatoria) of pepper when applied alone or in tank-mixtures with a copper (Kocide 3000), an antibiotic (GWN-9350, gentamicin), or a putative plant defense activator (Prophyt). Tests were performed April-July 2008 at the North Carolina Agricultural Research Service Sandhills Research Station, Montgomery County.
EXPERIMENTAL DESIGN and TREATMENT APPLICATIONS: Each treatment consisted of two 7-plant rows running east-west replicated in a four-block completely randomized design. Each 7-plant row was 10.5 ft×2 ft. This area was used to calculate the quantity of spray material extrapolated for a per acre basis. Plants of bell pepper cultivar ‘X3R-Camelot’ were transplanted to the field on Apr. 24, 2008. On May 6, two plants in the south row of each plot of each treatment were inoculated with a suspension of copper-resistant strains of the bacterial pathogen. These plants were destined to serve as the inoculum source for each plot. Each of the spray test materials was mixed in 1.5 liters of water and applied using a backpack sprayer by making a single pass on each side of the plant row. Treatments were applied weekly starting immediately after the plants had been inoculated May 6 followed by 7 additional weekly sprays for a total of 8 applications through June 24.
DATA: Ratings of foliar disease were started May 22, when symptoms were observed on the inoculated plants and continued weekly through June 25. Disease was most severe on the inoculated plants and then spread to the non-inoculated plants. Data from these two groups (inoculated plants and the non-inoculated) were evaluated separately. The results are expressed as disease progress over time using the calculated Area Under the Disease Progress Curve (AUDPC). Two fruit harvests were done; July 1 and 8. Because there had been plant loss in some plots, the number of plants per plot was counted and yields (number of fruit and weight) were calculated and are reported on a per plant basis per treatment.

[2] = system: C. albicans; test: Growth curve / colony count analysis, C. albicans; format: cell-based, Candida albicans; conditions: 100 μM (data not shown)
[3] = system: Xanthomonas strains Xcv 135; test: Crystal violet biofilm inhibition (attachment) assay on PVC microtiter wells; format: cell-based; conditions: 28° C., 6 hours, static
Procedure: A Standard Crystal Violet reporter assay is employed to assess the effect of compounds from the 2-amino on the formation of biofilms. Among others, the following strains are tested:
Bacteria are allowed to form biofilms in a multi-well plate in the absence or presence of one or more compounds. Planktonic (or free growing) bacteria are then removed, wells washed vigorously, and crystal violet added. Crystal violet stains the remaining bacteria which, following ethanol solubilization, is quantitated by spectrophotometry (A540). Time-dependent and concentration-dependent analysis of each compound are performed.
Biofilm formation on PVC microtiter wells was accomplished using Xanthomonas strains Xcv 135 (known to infect peppers and tomatoes) and Xcv 5 (known to infect tomatoes but not peppers) as models. The Starting Optical Density (OD at 600 nm) for biofilm attachment assay was 0.55, the temperature for this assay was 28° C., the duration of incubation was 6 hours under, and the assay was static.
Biofilm inhibition results are as follows for screens with Xcv 135. The Xcv 5 strain is tested in the same manner.

[4] = system: Candida albicans biofilms; test: Inhibition of C. albicans biofilm formation, crystal violet reporter assay; format: cell-based; conditions: 24 h, read-out: inhibition of C. albicans biofilm formation
Procedure: It was screened at 100 μM for its ability to inhibit to the formation of C. albicans biofilms using a crystal violet reporter assay. Briefly, biofilms were allowed to form for 24 hours in a 96-well microtiter plate in the absence or presence of 100 μM of the compound. The wells were subsequently washed thoroughly with water to remove free-floating and loosely adherent fungus, and then treated with crystal violet. Crystal violet stains the remaining surface attached fungus (i.e. the biofilm), which following solublization, can be quantified by spectrophotometry (A540).
Each member of the pilot library was assayed at 100 μM for its ability to inhibit the formation of C. albicans biofilms using the crystal violet reporter assay.
Procedure to Determine the Inhibitory Effect of Test Compounds on C. albicans, C. neoformans and a Mixed S. epidermidis/C. albicans Biofilm Formation:
Inhibition assays were performed by taking an overnight culture of yeast or yeast/bacteria strain and subculturing it at an OD600 of 0.05 into YPD (Yeast extract, peptone and dextrose (BD 242820)) media for the yeast alone or tryptic soy broth for the S. epidermidis/C. albicans. […] Biofilm inhibition was quantitated by measuring the OD540 of each well in which a negative control lane wherein no biofilm was formed served as a background and was subtracted out.

[5] = two fruit harvests, per plant basis

Row | Compound | Mean AUDPC for entire plot ([1]; foliar disease, 0-9 rating scale, AUDPC, entire plot, 8 weekly sprays) [a] | Mean AUDPC for inoculated plants ([1]; foliar disease, 0-9 rating scale, Area Under the Disease Progress Curve, inoculated bell pepper plants, 8 weekly sprays, rate/acre as in treatment line) [b] | Mean fruit yield (lb)/plant [1, 5] [b lb] | Mean number pepper fruit/plant [1, 5] [b] | growth curves: anti-biofilm activity fungicidal or not [2] | % Inhibition at 20 μM (vs. Xcv 135) [3] [%] | inhibition at 100 µM [4] [%]
1 | C/C(=C\c1ccccc1)Cn1cc(CCCCCc2c[nH]c(N)n2)nn1 [Formula (II)(a)(5)(D), 4-{5-[1-(2-Methyl-3-phenyl-allyl)-1H-[1,2,3]triazol-4-yl]-pentyl}-1H-imidazol-2-ylamine hydrochloride] | 42 | 113 | 1.46 | 4.8 | non-fungicidal | 86 | 12
2 | C/C(=C\c1ccccc1)Cn1cc(CCCCCCc2c[nH]c(N)n2)nn1 [Formula (II)(a)(6)(D), 4-{6-[1-(2-Methyl-3-phenyl-allyl)-1H-[1,2,3]triazol-4-yl]-hexyl}-1H-imidazol-2-ylamine hydrochloride] | – | – | – | – | – | 85 | –
3 | Nc1nc(CCc2cn(CCc3c[nH]c4ccccc34)nn2)c[nH]1 [Formula (II)(i)(a)(2)(J)] | – | – | – | – | – | 0 | –
